Assay [1] concerns the target T1, mouse Siglec-2-Fc-Avi (CD22) (Mus musculus, UniProt P35329).
T1 construct: made in house
T1 sequence (P35329 22-708 limits assumed): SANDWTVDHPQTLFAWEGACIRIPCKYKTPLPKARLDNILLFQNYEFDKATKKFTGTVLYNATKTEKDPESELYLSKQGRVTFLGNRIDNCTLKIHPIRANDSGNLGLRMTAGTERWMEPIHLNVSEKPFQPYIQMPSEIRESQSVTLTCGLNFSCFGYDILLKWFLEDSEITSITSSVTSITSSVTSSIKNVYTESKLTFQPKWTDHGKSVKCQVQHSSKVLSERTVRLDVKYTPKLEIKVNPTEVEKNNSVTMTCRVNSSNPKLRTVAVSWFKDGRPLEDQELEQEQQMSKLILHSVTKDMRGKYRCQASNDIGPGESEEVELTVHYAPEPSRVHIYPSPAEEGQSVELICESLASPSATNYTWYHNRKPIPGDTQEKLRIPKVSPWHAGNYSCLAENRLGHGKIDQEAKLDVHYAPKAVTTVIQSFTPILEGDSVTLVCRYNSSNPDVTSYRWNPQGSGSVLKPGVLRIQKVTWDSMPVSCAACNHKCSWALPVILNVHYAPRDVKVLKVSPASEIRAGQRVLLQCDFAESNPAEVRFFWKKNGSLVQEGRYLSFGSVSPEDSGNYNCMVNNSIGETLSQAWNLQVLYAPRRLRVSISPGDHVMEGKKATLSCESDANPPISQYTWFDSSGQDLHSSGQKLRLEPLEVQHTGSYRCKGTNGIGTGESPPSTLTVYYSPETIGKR
Put plainly: SPR binding affinity to mouse CD22. The note with it: steady-state analysis. In short, it runs like this: (§1)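 Steady-state fits gave the affinities. Before capture on a streptavidin surface, biotinylated CD22 had native sialic acids stripped (SialoExo, 4 hours, 37° C.). Running buffer: 10 mM HEPES pH 7.5, 150 mM NaCl, 0.05% Tween-20, 1% DMSO, with DMSO solvent correction.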
A general note: In SPR one partner is held on a chip, and binding of the other changes the refractive index at the surface.

The target in assay [2] is T2, human Siglec-2/CD22 protein (Homo sapiens, UniProt P20273).
T2 construct: purchased Acro Biosystems SI2-H82E3
T2 sequence (P20273 20-847): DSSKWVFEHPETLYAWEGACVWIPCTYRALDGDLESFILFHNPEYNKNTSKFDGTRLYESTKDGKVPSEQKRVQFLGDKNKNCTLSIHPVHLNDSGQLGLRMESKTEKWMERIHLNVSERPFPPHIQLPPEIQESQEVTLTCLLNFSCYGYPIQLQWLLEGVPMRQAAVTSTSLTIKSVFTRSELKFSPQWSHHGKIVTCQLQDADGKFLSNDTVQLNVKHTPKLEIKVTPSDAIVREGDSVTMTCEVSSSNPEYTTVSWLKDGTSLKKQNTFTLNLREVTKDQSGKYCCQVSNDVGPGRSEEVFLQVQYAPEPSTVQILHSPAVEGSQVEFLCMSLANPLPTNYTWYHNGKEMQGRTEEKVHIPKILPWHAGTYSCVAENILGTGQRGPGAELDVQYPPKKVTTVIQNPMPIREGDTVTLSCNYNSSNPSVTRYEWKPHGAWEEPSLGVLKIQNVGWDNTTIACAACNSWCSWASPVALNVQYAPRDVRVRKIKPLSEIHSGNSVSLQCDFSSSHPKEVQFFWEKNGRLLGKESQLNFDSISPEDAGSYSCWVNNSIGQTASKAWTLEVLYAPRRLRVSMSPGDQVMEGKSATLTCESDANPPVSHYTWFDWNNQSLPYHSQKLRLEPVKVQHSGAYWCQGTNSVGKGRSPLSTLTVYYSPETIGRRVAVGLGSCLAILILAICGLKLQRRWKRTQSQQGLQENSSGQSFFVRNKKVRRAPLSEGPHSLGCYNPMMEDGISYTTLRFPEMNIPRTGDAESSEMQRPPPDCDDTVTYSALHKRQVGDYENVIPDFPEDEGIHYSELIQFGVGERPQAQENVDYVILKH
Put plainly: SPR binding affinity to human CD22. The note with it: steady-state analysis. In a few lines:
as §1

The target of assay [3] is cynomolgus Siglec-2/CD22 (Macaca fascicularis, UniProt A0A2K5WCZ6). Put plainly: biochemical. Type of assay: binding. The note with it: SPR, steady-state analysis; read-out: Affinity cyno CD22. In a few lines:
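Compound binding measured by steady-state SPR analysis, 120 s dissociation, in HEPES-NaCl-Tween buffer pH 7.5 containing 1% DMSO, DMSO solvent-corrected. Surface: cyno CD22, sialic acids first stripped by SialoExo for 4 h at 37° C., then amine-coupled onto CM5.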

Molecules are shown by their SMILES. Some results are limits rather than exact numbers.

cynomolgus Siglec-2/CD22, sequence (A0A2K5WCZ6 entry or part of it): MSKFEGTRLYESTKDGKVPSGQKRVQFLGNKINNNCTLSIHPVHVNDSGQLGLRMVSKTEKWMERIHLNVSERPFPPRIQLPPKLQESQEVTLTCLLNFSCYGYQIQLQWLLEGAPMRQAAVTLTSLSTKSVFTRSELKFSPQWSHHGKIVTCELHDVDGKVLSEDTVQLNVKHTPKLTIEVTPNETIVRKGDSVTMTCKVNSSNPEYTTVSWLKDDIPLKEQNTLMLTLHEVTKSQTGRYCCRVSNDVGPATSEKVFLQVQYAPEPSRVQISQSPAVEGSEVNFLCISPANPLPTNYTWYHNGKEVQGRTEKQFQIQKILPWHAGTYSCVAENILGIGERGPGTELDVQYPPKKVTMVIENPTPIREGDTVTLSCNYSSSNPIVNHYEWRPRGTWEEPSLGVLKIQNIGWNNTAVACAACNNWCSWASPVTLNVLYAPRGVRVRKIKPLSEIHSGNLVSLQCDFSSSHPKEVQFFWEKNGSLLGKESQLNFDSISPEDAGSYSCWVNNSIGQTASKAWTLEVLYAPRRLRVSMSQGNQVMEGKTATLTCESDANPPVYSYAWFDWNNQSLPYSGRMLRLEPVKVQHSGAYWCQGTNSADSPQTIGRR

As to `C#CCOCCCCCCO[C@]1(C(=O)O)C[C@H](O)[C@@H](NC(=O)CO)[C@H]([C@H](O)[C@H](O)CNC(=O)Cc2ccc(C(F)(F)F)cc2)O1` [Compound 158, (2R,4S,5R,6R)-6-((1R,2R)-1,2-dihydroxy-3-(2-(4-(trifluoromethyl)phenyl)acetamido)propyl)-4-hydroxy-5-(2-hydroxyacetamido)-2-((6-(prop-2-yn-1-yloxy)hexyl)oxy)tetrahydro-2H-pyran-2-carboxylic acid], the Kd in assay [1] is 1 to 10 µM; in assay [2], less than 1000 nM; in assay [3], 1000 to 10000 nM.

Consider `C#CCOCCCCCCO[C@]1(C(=O)O)C[C@H](O)[C@@H](NC(=O)CO)[C@H]([C@H](O)[C@H](O)CNC(=O)Cc2ccc(C(C)(C)C)cc2)O1` [Compound 160, (2R,4S,5R,6R)-6-((1R,2R)-3-(2-(4-(tert-butyl)phenyl)acetamido)-1,2-dihydroxypropyl)-4-hydroxy-5-(2-hydroxyacetamido)-2-((6-(prop-2-yn-1-yloxy)hexyl)oxy)tetrahydro-2H-pyran-2-carboxylic acid], for which the Kd in assay [1] was 1 to 10 µM; in assay [2], less than 1000 nM; in assay [3], less than 1000 nM.

With `C#CCOCCCCCCO[C@]1(C(=O)O)C[C@H](O)[C@@H](NC(=O)CO)[C@H]([C@H](O)[C@H](O)CNC(=O)Cc2ccc(C3CC3)cc2)O1` [Compound 161, (2R,4S,5R,6R)-6-((1R,2R)-3-(2-(4-cyclopropylphenyl)acetamido)-1,2-dihydroxypropyl)-4-hydroxy-5-(2-hydroxyacetamido)-2-((6-(prop-2-yn-1-yloxy)hexyl)oxy)tetrahydro-2H-pyran-2-carboxylic acid], the Kd in assay [1] is less than 1 µM; in assay [2], less than 1000 nM; in assay [3] it was less than 1000 nM.

Turning to `C#CCOCCCCCCO[C@]1(C(=O)O)C[C@H](O)[C@@H](NC(=O)CO)[C@H]([C@H](O)[C@H](O)CNC(=O)Cc2ccc(C#N)cc2)O1` [Compound 162, (2R,4S,5R,6R)-6-((1R,2R)-3-(2-(4-cyanophenyl)acetamido)-1,2-dihydroxypropyl)-4-hydroxy-5-(2-hydroxyacetamido)-2-((6-(prop-2-yn-1-yloxy)hexyl)oxy)tetrahydro-2H-pyran-2-carboxylic acid], the Kd in assay [1] was 1 to 10 µM; in assay [2] it was 1000 to 10000 nM; in assay [3], less than 1000 nM.

On to `C#CCCOc1ccc(CO[C@]2(C(=O)O)C[C@H](O)[C@@H](NC(=O)CO)[C@H]([C@H](O)[C@H](O)CNC(=O)Cc3ccccc3NC(C)=O)O2)cc1` [Compound 163, (2R,4S,5R,6R)-6-((1R,2R)-3-(2-(2-acetamidophenyl)acetamido)-1,2-dihydroxypropyl)-2-((4-(but-3-yn-1-yloxy)benzyl)oxy)-4-hydroxy-5-(2-hydroxyacetamido)tetrahydro-2H-pyran-2-carboxylic acid], for which the values for the Kd in assay [1], in assay [2] and in assay [3] were 1 to 10 µM, 1000 to 10000 nM and 1000 to 10000 nM, respectively.

Turning to `C#CCCOc1ccc(CO[C@]2(C(=O)O)C[C@H](O)[C@@H](NC(=O)CO)[C@H]([C@H](O)[C@H](O)CNC(=O)Cc3cccc(NC(C)=O)c3)O2)cc1` [Compound 164, (2R,4S,5R,6R)-6-((1R,2R)-3-(2-(3-acetamidophenyl)acetamido)-1,2-dihydroxypropyl)-2-((4-(but-3-yn-1-yloxy)benzyl)oxy)-4-hydroxy-5-(2-hydroxyacetamido)tetrahydro-2H-pyran-2-carboxylic acid], the Kd in assay [1] is 1 to 10 µM; in assay [2], 1000 to 10000 nM; in assay [3] it was 1000 to 10000 nM.

As to `C#CCOc1ccc(CO[C@]2(C(=O)O)C[C@H](O)[C@@H](NC(=O)CO)[C@H]([C@H](O)[C@H](O)CNC(=O)Cc3ccccc3F)O2)cc1` [Compound 165, (2R,4S,5R,6R)-6-((1R,2R)-3-(2-(2-fluorophenyl)acetamido)-1,2-dihydroxypropyl)-4-hydroxy-5-(2-hydroxyacetamido)-2-((4-(prop-2-yn-1-yloxy)benzyl)oxy)tetrahydro-2H-pyran-2-carboxylic acid], the Kd in assay [1] was 1 to 10 µM; in assay [2] it was less than 1000 nM; in assay [3] it was 1000 to 10000 nM.

Regarding `C#CCOc1ccc(CO[C@]2(C(=O)O)C[C@H](O)[C@@H](NC(=O)CO)[C@H]([C@H](O)[C@H](O)CNC(=O)Cc3ccc(F)cc3)O2)cc1` [Compound 166, (2R,4S,5R,6R)-6-((1R,2R)-3-(2-(4-fluorophenyl)acetamido)-1,2-dihydroxypropyl)-4-hydroxy-5-(2-hydroxyacetamido)-2-((4-(prop-2-yn-1-yloxy)benzyl)oxy)tetrahydro-2H-pyran-2-carboxylic acid], the values for the Kd in assay [1], in assay [2] and in assay [3] were 1 to 10 µM, less than 1000 nM and 1000 to 10000 nM, respectively.

On to `C#CCOc1ccc(CO[C@]2(C(=O)O)C[C@H](O)[C@@H](NC(=O)CO)[C@H]([C@H](O)[C@H](O)CNC(=O)Cc3cccc(F)c3)O2)cc1` [Compound 167, (2R,4S,5R,6R)-6-((1R,2R)-3-(2-(3-fluorophenyl)acetamido)-1,2-dihydroxypropyl)-4-hydroxy-5-(2-hydroxyacetamido)-2-((4-(prop-2-yn-1-yloxy)benzyl)oxy)tetrahydro-2H-pyran-2-carboxylic acid], for which the Kd in assay [1] is 1 to 10 µM; in assay [2], less than 1000 nM; in assay [3], 1000 to 10000 nM.

Regarding `C#CCCOc1ccc(CO[C@]2(C(=O)O)C[C@H](O)[C@@H](NC(=O)CO)[C@H]([C@H](O)[C@H](O)CNC(=O)Cc3ccc(NC(C)=O)cc3)O2)cc1` [Compound 168, (2R,4S,5R,6R)-6-((1R,2R)-3-(2-(4-acetamidophenyl)acetamido)-1,2-dihydroxypropyl)-2-((4-(but-3-yn-1-yloxy)benzyl)oxy)-4-hydroxy-5-(2-hydroxyacetamido)tetrahydro-2H-pyran-2-carboxylic acid], the Kd in assay [1] lay in the range of 1 to 10 µM; in assay [2], 1000 to 10000 nM; in assay [3], 1000 to 10000 nM.

Turning to `C#CCCOc1ccc(CO[C@]2(C(=O)O)C[C@H](O)[C@@H](NC(=O)CO)[C@H]([C@H](O)[C@H](O)CNC(=O)C(C)(O)c3ccccc3)O2)cc1` (stereo partly drawn) [Compound 169, (2R,4S,5R,6R)-2-((4-(but-3-yn-1-yloxy)benzyl)oxy)-6-((1R,2R)-1,2-dihydroxy-3-(2-hydroxy-2-phenylpropanamido)propyl)-4-hydroxy-5-(2-hydroxyacetamido)tetrahydro-2H-pyran-2-carboxylic acid], the results for the Kd in assay [1], in assay [2] and in assay [3] were greater than 10 µM, 1000 to 10000 nM and 1000 to 10000 nM, respectively.

For the compound `C#CCCOc1ccc(CO[C@]2(C(=O)O)C[C@H](O)[C@@H](NC(=O)CO)[C@H]([C@H](O)[C@H](O)CNC(=O)C3(c4ccc(C(F)(F)F)cc4)CCOCC3)O2)cc1` [Compound 170, (2R,4S,5R,6R)-2-((4-(but-3-yn-1-yloxy)benzyl)oxy)-6-((1R,2R)-1,2-dihydroxy-3-(4-(4-(trifluoromethyl)phenyl)tetrahydro-2H-pyran-4-carboxamido)propyl)-4-hydroxy-5-(2-hydroxyacetamido)tetrahydro-2H-pyran-2-carboxylic acid], the results for the Kd in assay [1], in assay [2] and in assay [3] were 1 to 10 µM, 1000 to 10000 nM and 1000 to 10000 nM, respectively.

The values are drawn from patent US20250064941A1, “SIGLEC LIGANDS, CONJUGATES, AND METHODS OF USE THEREOF” (Osprey Biopharmaceuticals, Inc., priority 2023, published 2025).
